# Test results as given in US7750003B2, “Compounds-943” (AstraZeneca AB, priority 2006, dated 2010).
# Target: recombinant mTOR (FLAG-tagged, residues 1362-2549) (Homo sapiens, UniProt P42345)
# Assay: In vitro mTOR kinase assay (Test (a), AlphaScreen)
# Type: biochemical
# Conditions: ATP 20 μM, read-out: Test (a): IC50 versus mTOR kinase
# Procedure, shortened: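 AlphaScreen read-out: a phospho-T389 p70 S6K antibody on acceptor beads captures the phosphorylated biotin-peptide on donor beads, with signal loss indicating inhibition.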
# Chain of recombinant mTOR (FLAG-tagged, residues 1362-2549) (P42345 1362-2549): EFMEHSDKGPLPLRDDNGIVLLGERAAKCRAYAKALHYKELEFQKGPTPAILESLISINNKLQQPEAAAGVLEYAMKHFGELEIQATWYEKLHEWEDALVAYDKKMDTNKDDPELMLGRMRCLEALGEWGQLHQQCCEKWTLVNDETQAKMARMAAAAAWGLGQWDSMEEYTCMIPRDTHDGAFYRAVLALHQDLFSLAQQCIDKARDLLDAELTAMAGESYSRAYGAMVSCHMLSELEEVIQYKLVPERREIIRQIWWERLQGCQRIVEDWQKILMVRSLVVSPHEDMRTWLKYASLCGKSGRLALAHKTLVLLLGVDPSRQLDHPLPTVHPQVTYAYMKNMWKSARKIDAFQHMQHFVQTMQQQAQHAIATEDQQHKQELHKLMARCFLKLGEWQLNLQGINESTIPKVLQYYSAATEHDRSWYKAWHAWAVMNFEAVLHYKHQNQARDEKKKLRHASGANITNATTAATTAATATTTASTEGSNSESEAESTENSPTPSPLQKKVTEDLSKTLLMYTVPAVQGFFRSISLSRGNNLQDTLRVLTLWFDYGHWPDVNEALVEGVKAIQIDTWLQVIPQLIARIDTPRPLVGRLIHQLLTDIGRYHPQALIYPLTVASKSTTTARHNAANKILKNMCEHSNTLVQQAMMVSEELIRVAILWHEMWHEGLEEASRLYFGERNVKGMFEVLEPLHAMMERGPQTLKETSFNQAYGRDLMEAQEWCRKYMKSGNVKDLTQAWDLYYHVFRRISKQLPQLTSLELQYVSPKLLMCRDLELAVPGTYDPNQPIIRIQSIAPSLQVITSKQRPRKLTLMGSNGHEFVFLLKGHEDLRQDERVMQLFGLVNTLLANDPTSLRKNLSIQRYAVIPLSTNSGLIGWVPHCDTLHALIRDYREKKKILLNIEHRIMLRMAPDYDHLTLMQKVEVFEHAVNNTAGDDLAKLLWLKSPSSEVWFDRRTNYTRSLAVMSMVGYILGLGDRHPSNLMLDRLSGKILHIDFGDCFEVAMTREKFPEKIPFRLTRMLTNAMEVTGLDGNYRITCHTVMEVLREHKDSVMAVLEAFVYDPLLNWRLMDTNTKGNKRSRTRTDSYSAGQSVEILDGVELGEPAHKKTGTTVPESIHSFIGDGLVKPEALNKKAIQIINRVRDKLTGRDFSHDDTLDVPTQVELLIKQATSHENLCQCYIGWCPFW
row,IC50 [nM],SMILES
1,810,"C[C@H]1COCCN1c1cc(CS(C)(=O)=O)nc(-c2ccc(NC(=O)NCc3ccncc3)cc2)n1 [Example 24e, 1-[4-[4-[(3S)-3-methylmorpholin-4-yl]-6-(methylsulfonylmethyl)pyrimidin-2-yl]phenyl]-3-(pyridin-4-ylmethyl)urea]"
2,310,"C[C@H]1COCCN1c1cc(CS(C)(=O)=O)nc(-c2ccc(NC(=O)NCc3cnn(C)c3)cc2)n1 [Example 24g, 1-[4-[4-[(3S)-3-methylmorpholin-4-yl]-6-(methylsulfonylmethyl)pyrimidin-2-yl]phenyl]-3-[(1-methylpyrazol-4-yl)methyl]urea]"
3,4400,"Cc1cc(CNC(=O)Nc2ccc(-c3nc(CS(C)(=O)=O)cc(N4CCOC[C@@H]4C)n3)cc2)no1 [Example 24h, 3-[4-[4-[(3S)-3-methylmorpholin-4-yl]-6-(methylsulfonylmethyl)pyrimidin-2-yl]phenyl]-1-[(5-methyl-1,2-oxazol-3-yl)methyl]urea]"
4,330,"C[C@H]1COCCN1c1cc(CS(C)(=O)=O)nc(-c2ccc(NC(=O)NCc3cccc(N(C)C)c3)cc2)n1 [Example 24i, 3-[(3-dimethylaminophenyl)methyl]-1-[4-[4-[(3S)-3-methylmorpholin-4-yl]-6-(methylsulfonylmethyl)pyrimidin-2-yl]phenyl]urea]"
5,220,"C[C@H]1COCCN1c1cc(CS(C)(=O)=O)nc(-c2ccc(NC(=O)NCc3cncs3)cc2)n1 [Example 24j, 1-[4-[4-[(3S)-3-methylmorpholin-4-yl]-6-(methylsulfonylmethyl)pyrimidin-2-yl]phenyl]-3-(1,3-thiazol-5-ylmethyl)urea]"
6,180,"CNC(=O)Nc1ccn(-c2nc(CS(C)(=O)=O)cc(N3CCOC[C@@H]3C)n2)n1 [Example 24k, 3-methyl-1-[1-[4-[(3S)-3-methylmorpholin-4-yl]-6-(methylsulfonylmethyl)pyrimidin-2-yl]pyrazol-3-yl]urea]"
7,840,"CCNC(=O)Nc1ccn(-c2nc(CS(C)(=O)=O)cc(N3CCOC[C@@H]3C)n2)n1 [Example 24l, 1-ethyl-3-[1-[4-[(3S)-3-methylmorpholin-4-yl]-6-(methylsulfonylmethyl)pyrimidin-2-yl]pyrazol-3-yl]urea]"
8,650,"C[C@H]1COCCN1c1cc(CS(C)(=O)=O)nc(-n2ccc(NC(=O)NC3CC3)n2)n1 [Example 24m, 3-cyclopropyl-1-[1-[4-[(3S)-3-methylmorpholin-4-yl]-6-(methylsulfonylmethyl)pyrimidin-2-yl]pyrazol-3-yl]urea]"
9,3200,"CNC(=O)NC1CCN(c2nc(N3CCOC[C@@H]3C)cc(C(C)(C)S(C)(=O)=O)n2)CC1 [Example 24n, 3-methyl-1-[1-[4-[(3S)-3-methylmorpholin-4-yl]-6-(2-methylsulfonylpropan-2-yl)pyrimidin-2-yl]-4-piperidyl]urea]"
10,3400,"CCNC(=O)NC1CCN(c2nc(N3CCOC[C@@H]3C)cc(C(C)(C)S(C)(=O)=O)n2)CC1 [Example 24o, 1-ethyl-3-[1-[4-[(3S)-3-methylmorpholin-4-yl]-6-(2-methylsulfonylpropan-2-yl)pyrimidin-2-yl]-4-piperidyl]urea]"
11,890,"C[C@H]1COCCN1c1cc(C(C)(C)S(C)(=O)=O)nc(N2CCC(NC(=O)NC3CC3)CC2)n1 [Example 24p, 3-cyclopropyl-1-[1-[4-[(3S)-3-methylmorpholin-4-yl]-6-(2-methylsulfonylpropan-2-yl)pyrimidin-2-yl]-4-piperidyl]urea]"
12,5800,"C[C@H]1COCCN1c1cc(C(C)(C)S(C)(=O)=O)nc(N2CCC(NC(=O)NCc3cnn(C)c3)CC2)n1 [Example 24q, 1-[1-[4-[(3S)-3-methylmorpholin-4-yl]-6-(2-methylsulfonylpropan-2-yl)pyrimidin-2-yl]-4-piperidyl]-3-[(1-methylpyrazol-4-yl)methyl]urea]"
13,340,"C[C@H]1COCCN1c1cc(CS(C)(=O)=O)nc(-c2ccc(NC(=O)NC3CC3)nc2)n1 [Example 24r, 3-cyclopropyl-1-[5-[4-[(3S)-3-methylmorpholin-4-yl]-6-(methylsulfonylmethyl)pyrimidin-2-yl]pyridin-2-yl]urea]"
14,4.7,"C[C@H]1COCCN1c1cc(C(C)(C)S(C)(=O)=O)nc(-c2ccc(NC(=O)Nc3ccon3)cc2)n1 [Example 24s, 1-[4-[4-[(3S)-3-methylmorpholin-4-yl]-6-(2-methylsulfonylpropan-2-yl)pyrimidin-2-yl]phenyl]-3-(1,2-oxazol-3-yl)urea]"
15,12,"Cc1cc(NC(=O)Nc2ccc(-c3nc(N4CCOC[C@@H]4C)cc(C(C)(C)S(C)(=O)=O)n3)cc2)no1 [Example 24t, 3-[4-[4-[(3S)-3-methylmorpholin-4-yl]-6-(2-methylsulfonylpropan-2-yl)pyrimidin-2-yl]phenyl]-1-(5-methyl-1,2-oxazol-3-yl)urea]"
16,120,"C[C@H]1COCCN1c1cc(C(C)(C)S(C)(=O)=O)nc(-c2ccc(NC(=O)Nc3ncccn3)cc2)n1 [Example 24u, 1-[4-[4-[(3S)-3-methylmorpholin-4-yl]-6-(2-methylsulfonylpropan-2-yl)pyrimidin-2-yl]phenyl]-3-pyrimidin-2-yl-urea]"

row,IC50 [nM],SMILES
1,55,"C[C@H]1COCCN1c1cc(C(C)(C)S(C)(=O)=O)nc(-c2ccc(NC(=O)Nc3cc[nH]n3)cc2)n1 [Example 24v, 1-[4-[4-[(3S)-3-methylmorpholin-4-yl]-6-(2-methylsulfonylpropan-2-yl)pyrimidin-2-yl]phenyl]-3-(1H-pyrazol-3-yl)urea]"
2,34,"C[C@H]1COCCN1c1cc(C(C)(C)S(C)(=O)=O)nc(-c2ccc(NC(=O)Nc3ccccc3)cc2)n1 [Example 24w, 1-[4-[4-[(3S)-3-methylmorpholin-4-yl]-6-(2-methylsulfonylpropan-2-yl)pyrimidin-2-yl]phenyl]-3-phenyl-urea]"
3,100,"COc1ccc(NC(=O)Nc2ccc(-c3nc(N4CCOC[C@@H]4C)cc(C(C)(C)S(C)(=O)=O)n3)cc2)cn1 [Example 24x, 3-(6-methoxypyridin-3-yl)-1-[4-[4-[(3S)-3-methylmorpholin-4-yl]-6-(2-methylsulfonylpropan-2-yl)pyrimidin-2-yl]phenyl]urea]"
4,2200,"C[C@H]1COCCN1c1cc(C(C)(C)S(C)(=O)=O)nc(-c2ccc(NC(=O)Nc3ccc(F)cn3)cc2)n1 [Example 24y, 3-(5-fluoropyridin-2-yl)-1-[4-[4-[(3S)-3-methylmorpholin-4-yl]-6-(2-methylsulfonylpropan-2-yl)pyrimidin-2-yl]phenyl]urea]"
5,370,"C[C@H]1COCCN1c1cc(C(C)(C)S(C)(=O)=O)nc(-c2cnc(NC(=O)NCc3cnn(C)c3)nc2)n1 [Example 24z, 1-[5-[4-[(3S)-3-methylmorpholin-4-yl]-6-(2-methylsulfonylpropan-2-yl)pyrimidin-2-yl]pyrimidin-2-yl]-3-[(1-methylpyrazol-4-yl)methyl]urea]"
6,1900,"C[C@H]1COCCN1c1cc(CS(C)(=O)=O)nc(-n2ccc(NC(=O)Nc3ccccc3)n2)n1 [Example 25, 1-[1-[4-[(3S)-3-Methylmorpholin-4-yl]-6-(methylsulfonylmethyl)pyrimidin-2-yl]pyrazol-3-yl]-3-phenyl-urea]"
7,4400,"COc1ccc(NC(=O)Nc2ccn(-c3nc(CS(C)(=O)=O)cc(N4CCOC[C@@H]4C)n3)n2)cc1 [Example 25a, 3-(4-methoxyphenyl)-1-[1-[4-[(3S)-3-methylmorpholin-4-yl]-6-(methylsulfonylmethyl)pyrimidin-2-yl]pyrazol-3-yl]urea]"
8,4400,"C[C@H]1COCCN1c1cc(CS(C)(=O)=O)nc(-n2ccc(NC(=O)Nc3ccc(F)cc3)n2)n1 [Example 25b, 3-(4-fluorophenyl)-1-[1-[4-[(3S)-3-methylmorpholin-4-yl]-6-(methylsulfonylmethyl)pyrimidin-2-yl]pyrazol-3-yl]urea]"
9,29,"CNC(=O)CS(=O)(=O)Cc1cc(N2CCOC[C@@H]2C)nc(-c2ccc(NC(=O)NC)cc2)n1 [Example 26, N-Methyl-2-[[2-[4-(methylcarbamoylamino)phenyl]-6-[(3S)-3-methylmorpholin-4-yl]pyrimidin-4-yl]methylsulfonyl]acetamide]"
10,37,"CNC(=O)Nc1ccc(-c2nc(CS(=O)(=O)CC(N)=O)cc(N3CCOC[C@@H]3C)n2)cc1 [Example 26a, 2-[[2-[4-(methylcarbamoylamino)phenyl]-6-[(3S)-3-methylmorpholin-4-yl]pyrimidin-4-yl]methylsulfonyl]acetamide]"
11,41,"CNC(=O)Nc1ccc(-c2nc(CS(=O)(=O)CCNC(C)=O)cc(N3CCOC[C@@H]3C)n2)cc1 [Example 26b, N-[2-[[2-[4-(methylcarbamoylamino)phenyl]-6-[(3S)-3-methylmorpholin-4-yl]pyrimidin-4-yl]methylsulfonyl]ethyl]acetamide]"
12,190,"C[C@H]1COCCN1c1cc(CN2CCOCC2)nc(-c2ccc(NC(=O)Nc3ccccc3)cc2)n1 [Example 27, 1-[4-[4-[(3S)-3-Methylmorpholin-4-yl]-6-(morpholin-4-ylmethyl)pyrimidin-2-yl]phenyl]-3-phenyl-urea]"
13,4700,"C[C@H]1COCCN1c1cc(COc2ccccc2)nc(-c2ccc(NC(=O)Nc3ccccc3)cc2)n1 [Example 28, 1-[4-[4-[(3S)-3-Methylmorpholin-4-yl]-6-(phenoxymethyl)pyrimidin-2-yl]phenyl]-3-phenyl-urea]"
14,560,"C[C@H]1COCCN1c1cc(CS(=O)(=O)C2CCNC2=O)nc(-c2ccc(NC(=O)Nc3ccccc3)cc2)n1 (stereo partly drawn) [Example 29, 1-[4-[4-[(3S)-3-Methylmorpholin-4-yl]-6-[(2-oxopyrrolidin-3-yl)sulfonylmethyl]pyrimidin-2-yl]phenyl]-3-phenyl-urea]"
15,900,"C[C@H]1COCCN1c1cc(CNc2ccccc2)nc(-c2ccc(NC(=O)Nc3ccccc3)cc2)n1 [Example 30, 1-[4-[4-(Anilinomethyl)-6-[(3S)-3-methylmorpholin-4-yl]pyrimidin-2-yl]phenyl]-3-phenyl-urea]"
16,120,"C[C@H]1COCCN1c1cc(CN2CCN(C)CC2)nc(-c2ccc(NC(=O)Nc3ccccc3)cc2)n1 [Example 30a, 1-[4-[4-[(3S)-3-methylmorpholin-4-yl]-6-[(4-methylpiperazin-1-yl)methyl]pyrimidin-2-yl]phenyl]-3-phenyl-urea]"
